pEC50: −log10 of the molar value.
Columns and labels:
hGLP-1 receptor = molecular target: T1, hGLP-1 receptor (Homo sapiens, UniProt P43220); assay: Agonist activity against GLP-1 receptor (CRE-luciferase reporter, ONE-Glo Luciferase Assay System); type: cell-based; settings: CHO-K1/CRE-luc/hGLP-1 receptor cells; 5 h incubation with compound; chemiluminescence readout
T1 construct: expressed in transfected cells; host or cells: CHO-K1 (stably transfected with hGLP-1 receptor plasmid and CRE-luc plasmid)
T1 sequence (P43220 24-463): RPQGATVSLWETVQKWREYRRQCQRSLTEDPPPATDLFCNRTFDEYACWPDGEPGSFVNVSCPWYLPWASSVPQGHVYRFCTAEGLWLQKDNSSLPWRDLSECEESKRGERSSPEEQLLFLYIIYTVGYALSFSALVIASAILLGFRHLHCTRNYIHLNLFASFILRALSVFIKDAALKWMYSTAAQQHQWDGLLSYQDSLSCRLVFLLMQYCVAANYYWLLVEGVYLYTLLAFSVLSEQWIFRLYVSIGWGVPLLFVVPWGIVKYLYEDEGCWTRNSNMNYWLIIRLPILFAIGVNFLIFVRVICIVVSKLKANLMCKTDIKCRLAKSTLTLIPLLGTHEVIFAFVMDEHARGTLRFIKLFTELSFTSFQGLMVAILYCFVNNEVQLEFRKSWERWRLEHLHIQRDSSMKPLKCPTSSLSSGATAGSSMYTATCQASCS
Source text: This experiment was intended to test the agonist activity of compound molecules against hGLP-1 receptor and evaluate the in vitro activity of the molecules according to EC50. In this experiment, ONE-Glo™ Luciferase Assay System (ONE-Glo™ Luciferase Assay System, Promega, E6110) was used. Under the action of the compound molecules, GLP-1R downstream signaling pathways were activated to cause elevated cAMP level. The binding of cAMP to CRE could initiate the transcriptional expression of a CRE downstream luciferase gene. The luciferase could emit fluorescence when reacting with a substrate thereof. The fluorescence signal, which reflected the activity of the compound for agonizing GLP-1 receptor, was measured by means ONE-Glo™ reagent.
A stably transfected CHO-K1/CRE-luc/hGLP-1 receptor cell strain (hGLP-1 receptor plasmid constructed in-house and CRE-luc plasmid Promega E8471) was constructed. CHO-K1/CRE-luc/hGLP-1 receptor cells were digested, centrifuged, and then resuspended. The single cell suspension was uniformly mixed and adjusted to a viable cell density of 2.78 × 10^5 cells/ml with a cell culture medium (DME/F-12 + 10% FBS). The resulting solution was added to a 96-well cell culture plate at 90 µL/well (Corning, #3903). The culture plate was incubated in an incubator for 16 h (37°C, 5% CO2).
The compound was dissolved in DMSO to prepare a stock solution with an initial concentration of 20 mM. The starting concentration of the small molecule compound was 0.02 mM. The compound was subjected to 3-fold dilution for 10 points, wherein the 11th point was DMSO. Another 96-well plate was taken, to which was added 95 µL/well of a cell culture medium (DME/F-12 + 10% FBS), followed by 5 µL/well of test samples with different concentrations. The mixtures were uniformly mixed. Next, 10 µL/well of test samples with different concentrations were added to the cell culture plate, with two duplicate wells for each sample. The culture plate was incubated in an incubator for 5 h (37°C, 5% CO2). The 96-well cell culture plate was taken out. 100 µL/well of ONE-Glo™ reagent was added, followed by incubation at room temperature for 10 minutes. Chemiluminescence was measured in and by a microplate reader (PHERAstar FS, BMG labtech).
Data were processed and analyzed using Microsoft Excel and Graphpad Prism 10. EC50 values of the compounds were obtained. Table 1. Agonist activity of the compounds of the present invention against hGLP-1 receptor

[1] = Pharmacokinetic evaluation in monkeys after intragastric gavage (plasma LC-MS/MS); type: in vivo; settings: both sexes, cynomolgus monkey, po, i.g., 1 mg/kg
Protocol: Using cynomolgus monkeys as test animals, the plasma concentrations of the example compounds at different time points were determined by an LC-MS/MS method following administration to the monkeys by intragastric gavage (i.g.). The pharmacokinetic behaviors of the compounds of the present invention in monkeys were investigated, and the pharmacokinetic profiles thereof were evaluated.
Compound 9: Three cynomolgus monkeys (two males and one female) were provided by Guangxi Nanning Tongling Shengwu Keji Youxian Gongsi, with production license SCXK Gui-2020-0002.
Compound 9: A certain amount of the test compound was separately weighed. 5% DMSO + 30% PG + 30% PEG400 + 35% normal saline were added to prepare a 0.4 mg/mL colorless and clear solution.
Compound 9: Administration dose was 1 mg/kg and administration volume was 2.5 mL/kg.
0.5 mL of blood samples were collected from the vein before administration and at 0.25, 0.5, 1.0, 2.0, 4.0, 6.0, 8.0, 11.0, and 24.0 hours after administration and placed in EDTA-K2 anticoagulant tubes, followed by centrifugation at 10000 rpm for 2 minutes (4°C). The plasma was separated within 1 hour and stored at -20°C or -80°C for analysis. The process from blood collection to centrifugation was operated under ice bath condition.
Determination of test compound contents in […] after administration of different compounds: Compound 9: 50 µL of the monkey plasma sample collected at each time point after administration was taken. 25 µL of an internal standard acetonitrile solution (tolbutamide, 1 ug/mL) was added, followed by 450 µL of an acetonitrile solution. The mixture was vortexed and mixed, followed by centrifugation at 3700 rpm for 10 min. The supernatant was taken for LC-MS/MS analysis.

pEC50 (hGLP-1 receptor) | Emax (hGLP-1 receptor) [fold] | Vd/F ([1]; read-out: Apparent volume of distribution Vz/F) [L/kg] | AUC(0-t) ([1]; read-out: Area under the curve AUC0-t) [ng·h/mL] | bioavailability ([1]; read-out: Bioavailability F) [%] | CL/F ([1]; read-out: Clearance CL/F) [mL/min/kg] | half-life ([1]; read-out: Half life T1/2 (converted)) [h] | Cmax ([1]; read-out: Plasma concentration Cmax) [ng/mL] | Structure (SMILES)
10.40 | 18.87 | – | – | – | – | – | – | Cc1cc(-n2nc3c(c2N2C[C@@H]4COc5cc6c(cnn6C(C)(C)C)c(F)c5N4C2=O)[C@H](C)N(C(=O)c2cc4cc([C@H]5CCOC(C)(C)C5)ccc4n2[C@@]2(c4noc(=O)[nH]4)C[C@@H]2C)CC3)cc(C)c1F [Compound 50, (R)-7-(tert-butyl)-2-((S)-5-(5-((S)-2,2-dimethyltetrahydro-2H-pyran-4-yl)-1-((1S,2S)-2-methyl-1-(5-oxo-4,5-dihydro-1,2,4-oxadiazol-3-yl)cyclopropyl)-1H-indole-2-carbonyl)-2-(4-fluoro-3,5-dimethylphenyl)-4-methyl-4,5,6,7-tetrahydro-2H-pyrazolo[4,3-c]pyridin-3-yl)-10-fluoro-2,3,3a,4-tetrahydro-1H,7H-imidazo[1',5':4,5][1,4]oxazino[3,2-f]indazol-1-one]
10.70 | 21.19 | – | – | – | – | – | – | Cc1cc(-n2nc3c(c2N2C[C@@H]4COc5cc6c(cnn6CC6CC6)c(F)c5N4C2=O)[C@H](C)N(C(=O)c2cc4cc([C@H]5CCOC(C)(C)C5)ccc4n2[C@@]2(c4noc(=O)[nH]4)C[C@@H]2C)CC3)cc(C)c1F [Compound 51, (R)-7-(cyclopropylmethyl)-2-((S)-5-(5-((S)-2,2-dimethyltetrahydro-2H-pyran-4-yl)-1-((1S,2S)-2-methyl-1-(5-oxo-4,5-dihydro-1,2,4-oxadiazol-3-yl)cyclopropyl)-1H-indole-2-carbonyl)-2-(4-fluoro-3,5-dimethylphenyl)-4-methyl-4,5,6,7-tetrahydro-2H-pyrazolo[4,3-c]pyridin-3-yl)-10-fluoro-2,3,3a,4-tetrahydro-1H,7H-imidazo[1',5':4,5][1,4]oxazino[3,2-f]indazol-1-one]

More lines, now with the values behind:

Structure (SMILES) | pEC50 (hGLP-1 receptor) | Emax (hGLP-1 receptor) [fold] | Vd/F ([1]; read-out: Apparent volume of distribution Vz/F) [L/kg] | AUC(0-t) ([1]; read-out: Area under the curve AUC0-t) [ng·h/mL] | bioavailability ([1]; read-out: Bioavailability F) [%] | CL/F ([1]; read-out: Clearance CL/F) [mL/min/kg] | half-life ([1]; read-out: Half life T1/2 (converted)) [h] | Cmax ([1]; read-out: Plasma concentration Cmax) [ng/mL]
Cc1cc(-n2nc3c(c2-c2cncn(-c4ccc5c(cnn5C)c4)c2=O)[C@H](C)N(C(=O)c2cc4cc([C@H]5CCOC(C)(C)C5)ccc4n2[C@@]2(c4noc(=O)[nH]4)C[C@@H]2C)CC3)cc(C)c1F [Compound 9, 3-((1S,2S)-1-(5-((S)-2,2-dimethyltetrahydro-2H-pyran-4-yl)-2-((S)-2-(4-fluoro-3,5-dimethylphenyl)-4-methyl-3-(1-(1-methyl-1H-indazol-5-yl)-6-oxo-1,6-dihydropyrimidin-5-yl)-4,5,6,7-tetrahydro-2H-pyrazolo[4,3-c]pyridine-5-carbonyl)-1H-indol-1-yl)-2-methylcyclopropyl)-1,2,4-oxadiazol-5(4H)-one] | 10.22 | 18.96 | 6.12 | 1180 | 44.5 | 12.4 | 5.88 | 178
Cc1cc(-n2nc3c(c2-c2cncn(-c4ccc5c(cnn5C5CC5)c4)c2=O)[C@H](C)N(C(=O)c2cc4cc([C@H]5CCOC(C)(C)C5)ccc4n2[C@@]2(c4noc(=O)[nH]4)C[C@@H]2C)CC3)cc(C)c1F [Compound 41, 3-((1S,2S)-1-(2-((S)-3-(1-(1-cyclopropyl-1H-indazol-5-yl)-6-oxo-1,6-dihydropyrimidin-5-yl)-2-(4-fluoro-3,5-dimethylphenyl)-4-methyl-4,5,6,7-tetrahydro-2H-pyrazolo[4,3-c]pyridine-5-carbonyl)-5-((S)-2,2-dimethyltetrahydro-2H-pyran-4-yl)-1H-indol-1-yl)-2-methylcyclopropyl)-1,2,4-oxadiazol-5(4H)-one] | 10.30 | 18.56 | – | – | – | – | – | –
C[C@H]1c2c(nn(-c3ccc(F)c(C4CC4)c3)c2-c2cncn(-c3ccc4c(cnn4C)c3)c2=O)CCN1C(=O)c1cc2cc([C@H]3CCOC(C)(C)C3)ccc2n1[C@@]1(c2noc(=O)[nH]2)C[C@@H]1C [Compound 42, 3-((1S,2S)-1-(2-((S)-2-(3-cyclopropyl-4-fluorophenyl)-4-methyl-3-(1-(1-methyl-1H-indazol-5-yl)-6-oxo-1,6-dihydropyrimidin-5-yl)-4,5,6,7-tetrahydro-2H-pyrazolo[4,3-c]pyridine-5-carbonyl)-5-((S)-2,2-dimethyltetrahydro-2H-pyran-4-yl)-1H-indol-1-yl)-2-methylcyclopropyl)-1,2,4-oxadiazol-5(4H)-one] | 10.30 | 19.67 | – | – | – | – | – | –
C[C@H]1c2c(nn(-c3ccc(F)c(C4CC4)c3)c2N2C[C@@H]3COc4cc5c(cnn5C5CC5)c(F)c4N3C2=O)CCN1C(=O)c1cc2cc([C@H]3CCOC(C)(C)C3)ccc2n1[C@@]1(c2noc(=O)[nH]2)C[C@@H]1C [Compound 46, (R)-7-cyclopropyl-2-((S)-2-(3-cyclopropyl-4-fluorophenyl)-5-(5-((S)-2,2-dimethyltetrahydro-2H-pyran-4-yl)-1-((1S,2S)-2-methyl-1-(5-oxo-4,5-dihydro-1,2,4-oxadiazol-3-yl)cyclopropyl)-1H-indole-2-carbonyl)-4-methyl-4,5,6,7-tetrahydro-2H-pyrazolo[4,3-c]pyridin-3-yl)-10-fluoro-2,3,3a,4-tetrahydro-1H,7H-imidazo[1',5':4,5][1,4]oxazino[3,2-f]indazol-1-one] | 10.30 | 16.76 | – | – | – | – | – | –

From patent EP4813984A1 (Jiangsu Hengrui Pharmaceuticals Co., Ltd., priority 2023, dated 2025)
